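Following 48 hours of exposure in 96-well plates, responses at five concentrations were used to interpolate endpoints linearly. GI50 marks 50% less growth.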 The source made the active and inactive calls. Rule as the data show it: active = GI50 up to about 1.1 µM and inactive = higher.
Columns and labels:
Experiment in all cases: NCI tumour cell line growth inhibition, 48 h
UACC-257 = tested on: UACC-257
SK-MEL-28 = tested on: SK-MEL-28
NCI-H460 = tested on: NCI-H460
TK-10 = tested on: TK-10
A549 = tested on: A549
EKVX = tested on: EKVX
MOLT-4 = tested on: MOLT-4
SF-295 = tested on: SF-295
SNB-19 = tested on: SNB-19
OVCAR-3 = tested on: OVCAR-3
786-0 = tested on: 786-0
HT-29 = tested on: HT-29
KM12 = tested on: KM12
HL-60 = tested on: HL-60
SF-539 = tested on: SF-539
SF-268 = tested on: SF-268
HOP-62 = tested on: HOP-62
OVCAR-4 = tested on: OVCAR-4

Measured: GI50

C/C=C(/CCCCNCCCC)[Si](C)(C)C
inactive: UACC-257 15.2 µM | SK-MEL-28 15.8 µM | NCI-H460 15.6 µM | TK-10 15 µM | A549 15.3 µM | EKVX 12.4 µM | MOLT-4 11.4 µM | SF-295 15.8 µM | SNB-19 17.7 µM | OVCAR-3 14.5 µM | 786-0 12.5 µM | HT-29 3.94 µM | KM12 14.5 µM | HL-60 6.64 µM | SF-539 14.9 µM | SF-268 12.3 µM

COC(=O)C1=CCC2c3[nH]c4ccccc4c3CCN2C1 (centres undefined)
inactive: UACC-257 169 µM | SK-MEL-28 > 354 µM | NCI-H460 > 354 µM | TK-10 > 354 µM | HOP-62 > 354 µM | A549 > 354 µM | EKVX 343 µM | MOLT-4 > 354 µM | SF-295 > 354 µM | SNB-19 193 µM | OVCAR-3 275 µM | 786-0 > 354 µM | HT-29 > 354 µM | KM12 > 354 µM | HL-60 > 354 µM | SF-539 > 354 µM | SF-268 > 354 µM

CC1CC(=O)C(C(O)CC2CC(=O)N(c3ccccc3)C(=O)C2)C(C)C1 (centres undefined)
inactive: UACC-257 > 100 µM | SK-MEL-28 > 100 µM | NCI-H460 > 100 µM | TK-10 > 100 µM | OVCAR-4 > 100 µM | HOP-62 > 100 µM | A549 > 100 µM | EKVX > 100 µM | MOLT-4 > 100 µM | SF-295 > 100 µM | SNB-19 > 100 µM | OVCAR-3 > 100 µM | 786-0 > 100 µM | HT-29 > 100 µM | KM12 > 100 µM | HL-60 > 100 µM | SF-539 > 100 µM | SF-268 > 100 µM

N#CC(C(=O)CCCC(=O)Nc1ccc(Cl)cc1Cl)c1ccccc1 (centres undefined)
inactive: UACC-257 > 100 µM | SK-MEL-28 > 100 µM | NCI-H460 > 100 µM | TK-10 > 100 µM | OVCAR-4 > 100 µM | HOP-62 > 100 µM | A549 > 100 µM | EKVX > 100 µM | MOLT-4 > 100 µM | SF-295 > 100 µM | SNB-19 > 100 µM | OVCAR-3 > 100 µM | 786-0 > 100 µM | HT-29 > 100 µM | KM12 > 100 µM | HL-60 > 100 µM | SF-539 > 100 µM | SF-268 > 100 µM

COC(=O)/C(C#N)=C1\NN=NN1c1ccc(OC)cc1
inactive: UACC-257 > 100 µM | SK-MEL-28 > 100 µM | NCI-H460 > 100 µM | TK-10 > 100 µM | A549 > 100 µM | EKVX > 100 µM | MOLT-4 > 100 µM | SF-295 > 100 µM | SNB-19 > 100 µM | OVCAR-3 > 100 µM | 786-0 > 100 µM | HT-29 > 100 µM | KM12 > 100 µM | SF-539 > 100 µM

O=C(O)c1ccc([C@@H]2C(=O)N(O)[C@@H]3C=CC[C@@H]32)cc1
inactive: UACC-257 > 100 µM | SK-MEL-28 > 100 µM | TK-10 > 100 µM | HOP-62 > 100 µM | A549 > 100 µM | EKVX > 100 µM | MOLT-4 > 100 µM | SF-295 > 100 µM | SNB-19 > 100 µM | OVCAR-3 > 100 µM | 786-0 > 100 µM | HT-29 > 100 µM | KM12 > 100 µM | HL-60 > 100 µM | SF-539 > 100 µM | SF-268 > 100 µM

Cn1cc(NC(=O)c2cc(NC(=O)Nc3cc(C(=O)Nc4cc(C(=O)NCCC(=N)N)n(C)c4)n(C)c3)cn2C)cc1C(=O)NCCC(=N)N
inactive: UACC-257 17.7 µM | SK-MEL-28 25.4 µM | NCI-H460 17.3 µM | TK-10 22.5 µM | OVCAR-4 38.7 µM | HOP-62 39.8 µM | A549 29.4 µM | EKVX 52.2 µM | MOLT-4 > 100 µM | SF-295 33.9 µM | SNB-19 > 100 µM | OVCAR-3 41.1 µM | 786-0 20.7 µM | HT-29 > 100 µM | KM12 17 µM | HL-60 60.7 µM | SF-539 18 µM | SF-268 36.4 µM

CCCCCCCCOCC(CO)OCCCCCCCC (centres undefined)
inactive: UACC-257 21.3 µM | SK-MEL-28 19.2 µM | NCI-H460 15.8 µM | TK-10 19.2 µM | OVCAR-4 19.2 µM | HOP-62 21.6 µM | A549 18.9 µM | MOLT-4 19.2 µM | SF-295 16.3 µM | SNB-19 23.7 µM | OVCAR-3 19.9 µM | 786-0 19.6 µM | HT-29 20.6 µM | HL-60 19 µM | SF-268 15 µM

CCOC(OC1=C(C#N)CCCC1)C(CC)[Se]c1ccccc1 (centres undefined)
inactive: UACC-257 46.7 µM | SK-MEL-28 23.6 µM | NCI-H460 17.8 µM | TK-10 > 100 µM | OVCAR-4 19.3 µM | HOP-62 59.7 µM | A549 39.4 µM | EKVX 24.4 µM | MOLT-4 20.7 µM | SF-295 27.6 µM | SNB-19 39.9 µM | OVCAR-3 19.9 µM | 786-0 17.4 µM | HT-29 29 µM | KM12 > 100 µM | HL-60 10.1 µM | SF-539 14.3 µM | SF-268 12.1 µM

CCOC(=O)C(=O)CC1=Nc2ccccc2SC(c2cccc(C)c2)C1 (centres undefined)
inactive: UACC-257 19 µM | SK-MEL-28 14.6 µM | NCI-H460 19.5 µM | OVCAR-4 18 µM | HOP-62 23.9 µM | A549 21.2 µM | EKVX 21.5 µM | MOLT-4 17.3 µM | SNB-19 18.3 µM | OVCAR-3 19.5 µM | 786-0 17.9 µM | HT-29 15.5 µM | KM12 16.2 µM | SF-539 19 µM | SF-268 16.8 µM

c1ccc2c(c1)CCC/C2=N\OCC1CO1 (centres undefined)
inactive: UACC-257 > 100 µM | NCI-H460 > 100 µM | TK-10 > 100 µM | OVCAR-4 > 100 µM | HOP-62 > 100 µM | A549 > 100 µM | EKVX > 100 µM | MOLT-4 49.3 µM | SF-295 70.1 µM | SNB-19 > 100 µM | OVCAR-3 > 100 µM | 786-0 > 100 µM | HT-29 98.4 µM | KM12 > 100 µM | HL-60 28.4 µM | SF-539 > 100 µM | SF-268 52.4 µM

CC(=O)O[C@]12CCC[C@H]1C1(O)C(O)CCC[C@H]12 (some centres undefined)
inactive: UACC-257 > 100 µM | SK-MEL-28 > 100 µM | NCI-H460 > 100 µM | TK-10 > 100 µM | OVCAR-4 > 100 µM | HOP-62 > 100 µM | A549 > 100 µM | EKVX > 100 µM | MOLT-4 > 100 µM | SF-295 > 100 µM | SNB-19 > 100 µM | 786-0 > 100 µM | HT-29 > 100 µM | KM12 > 100 µM | HL-60 > 100 µM | SF-268 > 100 µM

COc1cc2c(cc1OC)C(C#N)N(C(=O)c1ccccc1)C=C2OC(=O)c1ccccc1 (centres undefined)
inactive: UACC-257 23.4 µM | SK-MEL-28 22.9 µM | NCI-H460 36.4 µM | TK-10 27.1 µM | HOP-62 17.6 µM | EKVX 28.7 µM | MOLT-4 77.8 µM | SF-295 22.5 µM | SNB-19 23.6 µM | OVCAR-3 21.3 µM | 786-0 18.1 µM | HT-29 48.5 µM | KM12 34.4 µM | HL-60 > 100 µM | SF-539 19.1 µM | SF-268 30.8 µM

CCc1cccc(C(C)C)c1NC(=O)C(=O)C1C(=O)NC(=O)NC1=O
inactive: UACC-257 > 100 µM | SK-MEL-28 > 100 µM | NCI-H460 > 100 µM | TK-10 > 100 µM | OVCAR-4 > 100 µM | HOP-62 > 100 µM | A549 > 100 µM | EKVX > 100 µM | SF-295 > 100 µM | SNB-19 > 100 µM | OVCAR-3 > 100 µM | 786-0 > 100 µM | HT-29 > 100 µM | KM12 > 100 µM | HL-60 > 100 µM | SF-539 > 100 µM | SF-268 > 100 µM

Nc1nc2c(N)cc(C(F)(F)F)cc2nc1-c1ccccc1
inactive: UACC-257 > 100 µM | SK-MEL-28 > 100 µM | NCI-H460 > 100 µM | TK-10 > 100 µM | OVCAR-4 > 100 µM | HOP-62 > 100 µM | A549 > 100 µM | EKVX 4 µM | MOLT-4 38.4 µM | SF-295 > 100 µM | SNB-19 > 100 µM | OVCAR-3 > 100 µM | 786-0 > 100 µM | KM12 > 100 µM | HL-60 1.17 µM | SF-539 > 100 µM | SF-268 > 100 µM

Cc1ccc(S(=O)(=O)c2c(N)c3nc4ccccc4n3c3nc4ccccc4nc23)cc1
inactive: UACC-257 > 100 µM | SK-MEL-28 > 100 µM | NCI-H460 > 100 µM | OVCAR-4 38.7 µM | HOP-62 7.59 µM | A549 > 100 µM | EKVX > 100 µM | MOLT-4 > 100 µM | SF-295 > 100 µM | SNB-19 > 100 µM | OVCAR-3 > 100 µM | 786-0 4.93 µM | HT-29 > 100 µM | KM12 > 100 µM | SF-539 9.27 µM | SF-268 > 100 µM

— ChEMBL document CHEMBL1201862, “PubChem BioAssay data set” (2004)
